Laboratory results as given in patent US20260206761A1, “HETEROARYL-TRIAZOLE COMPOUNDS AS PESTICIDES” (Bayer Aktiengesellschaft, priority 2019, published 2026).

Experiments:
[1] = tested on: southern root-knot nematode (Meloidogyne incognita); test: Meloidogyne incognita test; assay type: in vivo; conditions: 336 h, application rate 20 ppm, after 14 days, read-out: nematicidal activity (based on gall formation)
Experimental: Meloidoyne incognita—Test
Solvent: 125.0 parts by weight of acetone
To produce a suitable preparation of active compound, 1 part by weight of active compound is mixed with the stated amount of solvent, and the concentrate is diluted with water to the desired concentration.
Vessels are filled with sand, a solution of the active ingredient, a suspension containing eggs and larvae of the southern root-knot nematode (Meloidogyne incognita) and salad seeds. The salad seeds germinate and the seedlings grow. Galls develop in the roots.
After 14 days the nematicidal activity is determined based on the percentage of gall formation. 100% means no galls were found and 0% means the number of galls found on the roots of the treated plants was equal to that in untreated control plants.

[2] = tested on: two spotted spidermite (Tetranychus urticae); test: Tetranychus urticae spray test OP-resistant; assay type: in vivo; conditions: 144 h, application rate 100 g/ha, after 6 days
Experimental: Tetranychus urticae—Spray Test OP-Resistant
Solvent: 78.0 parts by weight acetone • 1.5 parts by weight dimethylformamide
Emulsifier: alkylarylpolyglycol ether
To produce a suitable preparation of active compound, 1 part by weight of active compound is mixed with the stated amount of solvents and is diluted with water, containing an emulsifier concentration of 1000 ppm, to the desired concentration. Further test concentrations are prepared by dilution with emulsifier containing water.
French bean (Phaseolus vulgaris) leaf disks infected with all instars of the two spotted spidermite (Tetranychus urticae), are sprayed with a preparation of the active ingredient of the desired concentration.
After 6 days mortality in % is determined. 100% means all spider mites have been killed and 0% means none of the spider mites have been killed.

C[C@H](NC(=O)c1cc(OC(F)(F)F)cc(C2CC2)c1)c1ncnn1-c1ccccn1 [II-22] was tested, and the pest or weed control at 20 ppm [1] was 90%.

For C[C@H](NC(=O)c1cc(C2CC2)cc(C(F)(F)F)c1)c1ncnn1-c1ccc(C#N)cn1 [II-26], the mortality at 100 g/ha [2] was 90%.

For C[C@H](NC(=O)c1cc(C(F)(F)F)cc(C2(C#N)CC2)c1)c1ncnn1-c1ccc(C#N)cn1 [II-47], the mortality at 100 g/ha [2] was 90%.
